Experimental data from patent US12599136B2, “Substituted isophthalic acid diamides and their use as herbicides” (Bayer Aktiengesellschaft, priority 2020, dated 2026).

Key:
Format in all cases: in vivo
Veronica persica [1] = experiment: Post-emergence herbicidal action against VERPE; conditions: visual assessment about 3 weeks after treatment
Summary of the method: (§1)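 A WP or EC formulation diluted in water with 0.2% wetting agent was sprayed at 600 to 800 l/ha onto one-leaf-stage plants grown in sandy loam. About 3 weeks later, action was rated visually in percent, 100% being dead plants.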

Setaria viridis [2] = experiment: Pre-emergence herbicidal action against SETVI
Summary of the method: (§2)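 Greenhouse pots of sandy loam held seeds covered with soil, onto which the compound was applied before emergence. An aqueous suspension or emulsion of WP or EC was used at 600 to 800 l/ha with 0.2% wetting agent. Percent damage was judged visually at 3 weeks.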

Cyperus esculentus [3] = experiment: Pre-emergence herbicidal action against CYPES; conditions: visual score after 3 weeks vs untreated controls
Summary of the method: as §2

Polygonum convolvulus [4] = experiment: Pre-emergence herbicidal action against POLCO
Summary of the method: as §2

Alopecurus myosuroides [5] = experiment: Pre-emergence herbicidal action against ALOMY; conditions: visual score after 3 weeks vs untreated controls
Summary of the method: as §2

Cyperus esculentus [6] = experiment: Post-emergence herbicidal action against CYPES; conditions: visual assessment about 3 weeks after treatment
Summary of the method: as §1

Stellaria media [7] = experiment: Post-emergence herbicidal action against STEME; conditions: visual assessment about 3 weeks after treatment
Summary of the method: as §1

Lolium rigidum [8] = experiment: Post-emergence herbicidal action against LOLRI
Summary of the method: as §1

Alopecurus myosuroides [9] = experiment: Post-emergence herbicidal action against ALOMY
Summary of the method: as §1

Pharbitis purpurea [10] = experiment: Pre-emergence herbicidal action against PHBPU; conditions: visual score after 3 weeks vs untreated controls
Summary of the method: as §2

Echinochloa crus-galli [11] = experiment: Pre-emergence herbicidal action against ECHCG; conditions: visual score after 3 weeks vs untreated controls
Summary of the method: as §2

Veronica persica [12] = experiment: Pre-emergence herbicidal action against VERPE
Summary of the method: as §2

Pharbitis purpurea [13] = experiment: Post-emergence herbicidal action against PHBPU; conditions: visual assessment about 3 weeks after treatment
Summary of the method: as §1

Matricaria inodora [14] = experiment: Post-emergence herbicidal action against MATIN; conditions: visual assessment about 3 weeks after treatment
Summary of the method: as §1

Amaranthus retroflexus [15] = experiment: Post-emergence herbicidal action against AMARE; conditions: visual assessment about 3 weeks after treatment
Summary of the method: as §1

Polygonum convolvulus [16] = experiment: Post-emergence herbicidal action against POLCO; conditions: 80 g/ha, visual assessment about 3 weeks after treatment
Summary of the method: as §1

Lolium rigidum [17] = experiment: Pre-emergence herbicidal action against LOLRI
Summary of the method: as §2

Amaranthus retroflexus [18] = experiment: Pre-emergence herbicidal action against AMARE; conditions: visual score after 3 weeks vs untreated controls
Summary of the method: as §2

Avena fatua [19] = experiment: Post-emergence herbicidal action against AVEFA; conditions: visual assessment about 3 weeks after treatment
Summary of the method: as §1

Abutilon theophrasti [20] = experiment: Pre-emergence herbicidal action against ABUTH; conditions: Dosage column 320 g/ha (heading prints 3200 g/ha); visual score after 3 weeks vs untreated controls
Summary of the method: as §2

Viola tricolor [21] = experiment: Pre-emergence herbicidal action against VIOTR
Summary of the method: as §2

Avena fatua [22] = experiment: Pre-emergence herbicidal action against AVEFA; conditions: visual score after 3 weeks vs untreated controls
Summary of the method: as §2

Echinochloa crus-galli [23] = experiment: Post-emergence herbicidal action against ECHCG; conditions: visual assessment about 3 weeks after treatment
Summary of the method: as §1

Viola tricolor [24] = experiment: Post-emergence herbicidal action against VIOTR
Summary of the method: as §1

Hordeum murinum [25] = experiment: Pre-emergence herbicidal action against HORMU; conditions: visual score after 3 weeks vs untreated controls
Summary of the method: as §2

Hordeum murinum [26] = experiment: Post-emergence herbicidal action against HORMU
Summary of the method: as §1

Setaria viridis [27] = experiment: Post-emergence herbicidal action against SETVI; conditions: visual assessment about 3 weeks after treatment
Summary of the method: as §1

Stellaria media [28] = experiment: Pre-emergence herbicidal action against STEME
Summary of the method: as §2

Matricaria inodora [29] = experiment: Pre-emergence herbicidal action against MATIN; conditions: visual score after 3 weeks vs untreated controls
Summary of the method: as §2

Abutilon theophrasti [30] = experiment: Post-emergence herbicidal action against ABUTH
Summary of the method: as §1

Question: `CCN(C)C(=O)c1c(C(F)(F)F)ccc(C(=O)Nc2nnnn2C)c1Cl` [Example 1-124] was tested. Which “Post-emergence action against VERPE in %” value (Veronica persica [1]; 5 g/ha) did it give?
Answer: 80%

Question: What about the “Post-emergence action against VERPE in %” value (Veronica persica [1]; 20 g/ha) of the same compound?
Answer: 80%

Question: And the “Post-emergence action against VERPE in %” value (Veronica persica [1]; 80 g/ha)?
Answer: 100%

Question: And the “Pre-emergence action against SETVI” value (Setaria viridis [2]; 20 g/ha)?
Answer: 90%

Question: And the “Pre-emergence action against SETVI” value (Setaria viridis [2]; 80 g/ha)?
Answer: 100%

Question: What about the “Pre-emergence action against SETVI” value (Setaria viridis [2]; 320 g/ha) of the same compound?
Answer: 100%

Question: What about the “Pre-emergence action against CYPES” value (Cyperus esculentus [3]; 80 g/ha) of the same compound?
Answer: 80%

Question: And the “Pre-emergence action against CYPES” value (Cyperus esculentus [3]; 320 g/ha)?
Answer: 90%

Question: What about the “Pre-emergence action against POLCO” value (Polygonum convolvulus [4]; 80 g/ha) of the same compound?
Answer: 80%

Question: And the “Pre-emergence action against POLCO” value (Polygonum convolvulus [4]; 320 g/ha)?
Answer: 80%

Question: What about the “Pre-emergence action against ALOMY” value (Alopecurus myosuroides [5]; 20 g/ha) of the same compound?
Answer: 80%

Question: What about the “Pre-emergence action against ALOMY” value (Alopecurus myosuroides [5]; 80 g/ha) of the same compound?
Answer: 90%

Question: And the “Pre-emergence action against ALOMY” value (Alopecurus myosuroides [5]; 320 g/ha)?
Answer: 100%

Question: What about the “Post-emergence action against CYPES in %” value (Cyperus esculentus [6]; 20 g/ha) of the same compound?
Answer: 80%

Question: And the “Post-emergence action against CYPES in %” value (Cyperus esculentus [6]; 80 g/ha)?
Answer: 80%

Question: And the “Post-emergence action against STEME in %” value (Stellaria media [7]; 5 g/ha)?
Answer: 100%

Question: And the “Post-emergence action against STEME in %” value (Stellaria media [7]; 20 g/ha)?
Answer: 100%

Question: And the “Post-emergence action against STEME in %” value (Stellaria media [7]; 80 g/ha)?
Answer: 100%

Question: And the “Post-emergence action against LOLRI in %” value (Lolium rigidum [8]; 20 g/ha)?
Answer: 90%

Question: What about the “Post-emergence action against LOLRI in %” value (Lolium rigidum [8]; 80 g/ha) of the same compound?
Answer: 100%

Question: And the “Post-emergence action against ALOMY” value (Alopecurus myosuroides [9]; 5 g/ha)?
Answer: 90%

Question: What about the “Post-emergence action against ALOMY” value (Alopecurus myosuroides [9]; 20 g/ha) of the same compound?
Answer: 100%

Question: What about the “Post-emergence action against ALOMY” value (Alopecurus myosuroides [9]; 80 g/ha) of the same compound?
Answer: 100%

Question: What about the “Pre-emergence action against PHBPU” value (Pharbitis purpurea [10]; 80 g/ha) of the same compound?
Answer: 80%

Question: What about the “Pre-emergence action against PHBPU” value (Pharbitis purpurea [10]; 320 g/ha) of the same compound?
Answer: 90%

Question: And the “Pre-emergence action against ECHCG” value (Echinochloa crus-galli [11]; 20 g/ha)?
Answer: 80%

Question: What about the “Pre-emergence action against ECHCG” value (Echinochloa crus-galli [11]; 80 g/ha) of the same compound?
Answer: 100%

Question: What about the “Pre-emergence action against ECHCG” value (Echinochloa crus-galli [11]; 320 g/ha) of the same compound?
Answer: 100%

Question: What about the “Pre-emergence action against VERPE” value (Veronica persica [12]; 80 g/ha) of the same compound?
Answer: 80%

Question: What about the “Pre-emergence action against VERPE” value (Veronica persica [12]; 320 g/ha) of the same compound?
Answer: 100%

Question: And the “Post-emergence action against PHBPU in %” value (Pharbitis purpurea [13]; 5 g/ha)?
Answer: 80%

Question: What about the “Post-emergence action against PHBPU in %” value (Pharbitis purpurea [13]; 20 g/ha) of the same compound?
Answer: 90%

Question: And the “Post-emergence action against PHBPU in %” value (Pharbitis purpurea [13]; 80 g/ha)?
Answer: 90%

Question: What about the “Post-emergence action against MATIN in %” value (Matricaria inodora [14]; 20 g/ha) of the same compound?
Answer: 100%

Question: What about the “Post-emergence action against MATIN in %” value (Matricaria inodora [14]; 80 g/ha) of the same compound?
Answer: 100%

Question: What about the “Post-emergence action against AMARE in %” value (Amaranthus retroflexus [15]; 5 g/ha) of the same compound?
Answer: 100%

Question: And the “Post-emergence action against AMARE in %” value (Amaranthus retroflexus [15]; 20 g/ha)?
Answer: 100%

Question: What about the “Post-emergence action against AMARE in %” value (Amaranthus retroflexus [15]; 80 g/ha) of the same compound?
Answer: 100%

Question: What about the “Post-emergence action against POLCO in %” value (Polygonum convolvulus [16]) of the same compound?
Answer: 90%

Question: What about the “Pre-emergence action against LOLRI” value (Lolium rigidum [17]; 80 g/ha) of the same compound?
Answer: 80%

Question: What about the “Pre-emergence action against LOLRI” value (Lolium rigidum [17]; 320 g/ha) of the same compound?
Answer: 100%

Question: And the “Pre-emergence action against AMARE” value (Amaranthus retroflexus [18]; 20 g/ha)?
Answer: 90%

Question: And the “Pre-emergence action against AMARE” value (Amaranthus retroflexus [18]; 80 g/ha)?
Answer: 90%

Question: What about the “Pre-emergence action against AMARE” value (Amaranthus retroflexus [18]; 320 g/ha) of the same compound?
Answer: 100%

Question: And the “Post-emergence action against AVEFA in %” value (Avena fatua [19]; 5 g/ha)?
Answer: 80%

Question: What about the “Post-emergence action against AVEFA in %” value (Avena fatua [19]; 20 g/ha) of the same compound?
Answer: 100%

Question: What about the “Post-emergence action against AVEFA in %” value (Avena fatua [19]; 80 g/ha) of the same compound?
Answer: 100%

Question: And the “Pre-emergence action against ABUTH” value (Abutilon theophrasti [20])?
Answer: 90%

Question: What about the “Pre-emergence action against VIOTR” value (Viola tricolor [21]; 80 g/ha) of the same compound?
Answer: 100%

Question: What about the “Pre-emergence action against VIOTR” value (Viola tricolor [21]; 320 g/ha) of the same compound?
Answer: 100%

Question: What about the “Pre-emergence action against AVEFA” value (Avena fatua [22]; 80 g/ha) of the same compound?
Answer: 80%

Question: What about the “Pre-emergence action against AVEFA” value (Avena fatua [22]; 320 g/ha) of the same compound?
Answer: 100%

Question: And the “Post-emergence action against ECHCG in %” value (Echinochloa crus-galli [23]; 5 g/ha)?
Answer: 100%

Question: What about the “Post-emergence action against ECHCG in %” value (Echinochloa crus-galli [23]; 20 g/ha) of the same compound?
Answer: 100%

Question: And the “Post-emergence action against ECHCG in %” value (Echinochloa crus-galli [23]; 80 g/ha)?
Answer: 100%

Question: What about the “Post-emergence action against VIOTR in %” value (Viola tricolor [24]; 5 g/ha) of the same compound?
Answer: 100%

Question: What about the “Post-emergence action against VIOTR in %” value (Viola tricolor [24]; 20 g/ha) of the same compound?
Answer: 100%

Question: And the “Post-emergence action against VIOTR in %” value (Viola tricolor [24]; 80 g/ha)?
Answer: 100%

Question: What about the “Pre-emergence action against HORMU” value (Hordeum murinum [25]; 80 g/ha) of the same compound?
Answer: 90%

Question: And the “Pre-emergence action against HORMU” value (Hordeum murinum [25]; 320 g/ha)?
Answer: 90%

Question: What about the “Post-emergence action against HORMU in %” value (Hordeum murinum [26]; 5 g/ha) of the same compound?
Answer: 80%

Question: And the “Post-emergence action against HORMU in %” value (Hordeum murinum [26]; 20 g/ha)?
Answer: 90%

Question: And the “Post-emergence action against HORMU in %” value (Hordeum murinum [26]; 80 g/ha)?
Answer: 100%

Question: What about the “Post-emergence action against SETVI in %” value (Setaria viridis [27]; 5 g/ha) of the same compound?
Answer: 100%

Question: And the “Post-emergence action against SETVI in %” value (Setaria viridis [27]; 20 g/ha)?
Answer: 100%

Question: What about the “Post-emergence action against SETVI in %” value (Setaria viridis [27]; 80 g/ha) of the same compound?
Answer: 100%

Question: And the “Pre-emergence action against STEME” value (Stellaria media [28]; 20 g/ha)?
Answer: 90%

Question: What about the “Pre-emergence action against STEME” value (Stellaria media [28]; 80 g/ha) of the same compound?
Answer: 90%

Question: And the “Pre-emergence action against STEME” value (Stellaria media [28]; 320 g/ha)?
Answer: 90%

Question: And the “Pre-emergence action against MATIN” value (Matricaria inodora [29]; 20 g/ha)?
Answer: 80%

Question: What about the “Pre-emergence action against MATIN” value (Matricaria inodora [29]; 80 g/ha) of the same compound?
Answer: 90%

Question: What about the “Pre-emergence action against MATIN” value (Matricaria inodora [29]; 320 g/ha) of the same compound?
Answer: 100%

Question: And the “Post-emergence action against ABUTH” value (Abutilon theophrasti [30]; 5 g/ha)?
Answer: 100%

Question: What about the “Post-emergence action against ABUTH” value (Abutilon theophrasti [30]; 20 g/ha) of the same compound?
Answer: 100%

Question: And the “Post-emergence action against ABUTH” value (Abutilon theophrasti [30]; 80 g/ha)?
Answer: 100%
